This note sets out measurements from patent US20100303903A1, “METHODS OF ENHANCING SELECTIVE SEROTONIN REUPTAKE INHIBITOR EFFECTS IN MAMMALS” (SHIRE LLC, priority 2009, published 2010).

The test system of one experiment is mouse. Description: Behavioural despair test in the mouse (forced swim; duration of immobility and latency to immobility). The class given is in vivo, Male Rj: NMRI mice. The note with it: for DURATION OF IMMOBILITY % change / LATENCY % change: (a) compared with vehicle control. As for the experimental part: Male Rj: NMRI mice (Elevage Janvier, 53940 Le Genest-Saint-Isle, France) having a body weight of between 22 and 29 g were used in the study. The mice were stabilised for 5 days prior to assessment with free access to food and water. […] […] The control vehicle was distilled water. The substances were evaluated in comparison with the control vehicle and were administered dissolved in distilled water.
The method, which detects antidepressant activity, follows that described by Porsolt et al (Arch. Int. Pharmacodyn., 1977, 229, 327-336). Mice forced to swim in a situation from which they cannot escape rapidly become immobile. Antidepressants decrease the duration of immobility.
Mice were individually placed in a cylinder (height=24 cm; diameter=13 cm) containing 10 cm water (22° C.) from which they cannot escape. The mice were placed in the water for 6 minutes and the duration of immobility during the last 4 minutes was measured. The latency to the first bout of immobility was also recorded.
10 mice were studied per group. The test was performed blind.
L-lysine-d-amphetamine (Vyvanse) (8, 16 and 32 mg/kg) was administered 90 minutes before the test, alone or in combination and compared with a vehicle control group.
Imipramine (128 mg/kg p.o.), administered under the same experimental conditions, was used as a reference substance.
Data were analysed by comparing treated groups with vehicle control using unpaired Student's t tests. In addition, groups treated with combinations of substances were compared with groups administered appropriate substances alone using unpaired Student's t tests.
The mouse behavioural despair test is based on the observation that mice, when forced to swim in a situation from which there is no escape, after an initial period of vigorous activity will eventually cease to move altogether making only those movements necessary to keep the head above the water. This behavioural immobility is thought to indicate a state of despair in which the mice have learned that escape is impossible and have resigned themselves to the experimental conditions. This immobility is reduced by anti-depression treatments.

In another experiment the test system is mice. Description: Light-dark box test of anxiety. The experiment is classed as in vivo. The note with it: 16 and 32 mg/kg, alone. From the text: The light/dark test is based on the innate aversion of rodents to brightly/illuminated areas and on the spontaneous exploratory behaviour of rodents in response to mild stress, that is, novel environment and light. The test apparatus consists of a compartment box divided between a dark safe compartment and an illuminated aversive compartment.

The mark [1] stands for this setting: Table 2, 128 mg/kg p.o. -60 min.
[2] abbreviates: Table 3, 128 mg/kg p.o. -90 min.

Take `CN(C)CCCN1c2ccccc2CCc2ccccc21` [Imipramine]: in the experiment with mouse (setting [1]), the “DURATION OF IMMOBILITY mean ± s.e.m.” value came to 70.4 ± 21.4 s, the “LATENCY mean ± s.e.m.” value turned out to be 243.6 ± 32.7 s, the “DURATION OF IMMOBILITY % change” value was −67% and the LATENCY % change result was “+277%”. Further, in the experiment with mouse (setting [2]), the “DURATION OF IMMOBILITY mean ± s.e.m.” value is given as 100.6 ± 23.5 s and the “DURATION OF IMMOBILITY % change” value is listed as −48%.
For the molecule `CN[C@H]1CC[C@@H](c2ccc(Cl)c(Cl)c2)c2ccccc21` [Sertraline, sertraline], in the experiment with mouse (Table 3, 16 mg/kg p.o. -90 min), the “DURATION OF IMMOBILITY mean ± s.e.m.” value came out at 162.7 ± 27.5 s and the “DURATION OF IMMOBILITY % change” value was −16%.
`C[C@@H](Cc1ccccc1)NC(=O)[C@@H](N)CCCCN` [Vyvanse, N-[(1S)-1-methyl-2-phenylethyl]-L-lysinamide]: in the experiment on mouse (16 and 32 mg/kg, alone), the antidepressant-like activity entry is listed as “presence of antidepressant-like activity”. Moreover, the “DURATION OF IMMOBILITY mean ± s.e.m.” value in the experiment with mouse (Table 2, 16 mg/kg p.o. -60 min) turned out to be 173.6 ± 18.8 s; in the experiment on mouse (Table 2, 32 mg/kg p.o. -60 min), 160.3 ± 22.6 s; with mouse (Table 3, 8 mg/kg p.o. -90 min), 208.0 ± 7.3 s; in the experiment with mouse (Table 3, 16 mg/kg p.o. -90 min) it was 176.8 ± 14.8 s; in the experiment on mouse (Table 3, 32 mg/kg p.o. -90 min), 123.1 ± 20.8 s. The “LATENCY mean ± s.e.m.” value is listed as 100.0 ± 21.3 s in the experiment on mouse (Table 2, 16 mg/kg p.o. -60 min) and 104.3 ± 18.2 s with mouse (Table 2, 32 mg/kg p.o. -60 min). The “DURATION OF IMMOBILITY % change” value is on record as −19% with mouse (Table 2, 16 mg/kg p.o. -60 min); −25% in the experiment with mouse (Table 2, 32 mg/kg p.o. -60 min); “+7%” with mouse (Table 3, 8 mg/kg p.o. -90 min); −9% in the experiment on mouse (Table 3, 16 mg/kg p.o. -90 min); −37% in the experiment on mouse (Table 3, 32 mg/kg p.o. -90 min). Also, the LATENCY % change entry with mouse (Table 2, 16 mg/kg p.o. -60 min) was “+55%”; in the experiment on mouse (Table 2, 32 mg/kg p.o. -60 min) it was “+61%”. Also, the anxiogenic activity entry with mice was “absence of any anxiogenic activity”.
